Results as given in patent US20250136617A1 (The Regents of the University of Colorado, A Body Corporate, priority 2022, published 2025).
“Also recorded” adds a separate entry of the source. Where two headings read alike, the source gives them in different places. Blank lines part the entries; values can stand above or below the compound they belong to.

Key:
CXCR4 [1] = molecular target: T1, CXCR4 (Homo sapiens, UniProt P61073); assay: Adenylate cyclase (cAMP inhibition) assay, thiadiazine scaffold, CHO-CXCR4-cAMP cells; format: cell-based; set-up: host or cells: CHO-K1
T1 sequence (P61073 whole entry): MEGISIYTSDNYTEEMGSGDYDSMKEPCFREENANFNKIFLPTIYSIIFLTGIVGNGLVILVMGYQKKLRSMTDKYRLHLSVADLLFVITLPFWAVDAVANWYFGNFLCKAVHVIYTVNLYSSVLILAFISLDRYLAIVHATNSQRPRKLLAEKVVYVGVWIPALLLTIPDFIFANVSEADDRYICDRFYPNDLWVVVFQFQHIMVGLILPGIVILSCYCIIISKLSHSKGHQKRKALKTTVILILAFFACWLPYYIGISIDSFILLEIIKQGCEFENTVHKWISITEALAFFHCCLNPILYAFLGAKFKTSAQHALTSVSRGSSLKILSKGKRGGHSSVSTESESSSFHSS
Method: Tango™ CXCR4-bla U2OS Cells (Invitrogen; K1779) were used for (β-arrestin recruitment assays and maintained as a monolayer culture in McCoy's 5a (Corning; 10-050-CV) supplemented with 10% dialyzed Fetal Bovine Serum (Gibco; 26400-044), 0.1 mM MEM Non-essential amino acids solution, 25 mM HEPES solution (Corning; 25-060-CI), 1 mM Sodium Pyruvate (Gibco; 11360-070), 200 μg/mL Zeocin selection reagent (Gibco; R25001), 50 μg/mL Hygromycin B (Gibco, 10687010), and 100 μg/mL Geneticin (G418 Sulfate) (Gibco, 10131035). U2OS cells were subcultured twice weekly by 0.05% Trypsin-EDTA treatment (Corning; 25-051-CI) and passaged to continue exponential growth phase for cell signaling assays. All cell cultures were maintained in cell culture incubators at 37° C. with 5% CO2. CHO-K1 CXCR4 cells (DiscoverX, Fremont, CA, USA) were used for cAMP inhibition assays and maintained as a monolayer culture in DMEM/F12 (Corning; 10-091-CV) supplemented with 10% Fetal Bovine Serum (Corning; 35-011-CV) and 100IU penicillin, […] streptomycin sulfate (Corning; 30-002-CI) and […] G418 (Gibco; 101310350. Cells were subculture 2 times weekly by o.o5% Trypsin-EDTA treatment (Corning; 25-051-CI) and passaged to continue exponential growth phase for cell signaling assays. All cell cultures were maintained in cell culture incubators at 37° C. with 5% CO2.CEM-CCRF cells (ATCC CCL-119) were used in both the migration and calcium flux assays and were cultured in growth media consisting of RPMI 1640 (Corning; 10-040-CV) supplemented with 10% Fetal Bovine Serum (Corning; 35-011-CV), and 100 IU penicillin, […] streptomycin sulfate (Corning; 30-002-CI). […] Cells were harvested for use in migration and calcium flux assays at 2.0×10^6 cells/mL to 2.5×10^6 cells/mL and resuspended in assay media to desired density for respective experiments.
Compounds and DMSO normalization to 0.5% were dispensed using the TECAN D300e digital dispenser into the wells of a 384-well white wall clear-bottom assay plate (Griener 781983). […] This cell suspension was dispensed at 20 μL per well into the assay plate and allowed to incubate overnight for approximately 18 hrs with compounds in cell culture incubator at 37° C. with 5% CO2. Following incubation, DMEM/F12 media was gently removed, then the Lance Ultra cAMP Kit (Perkin Elmer; TRF0263) was performed according to the supplier guidelines. […] Time-resolved fluorescence was measured on the BMG LABTECH CLARIOstar Plus (BMG LABTECH Inc., Cary, NC) using the Lance Ultra cAMP kit guidelines for excitation and emission. […]

[2] = test system: CEM-CCRF human lymphoblast cells; assay: Transwell migration assay in CEM-CCRF lymphoblasts; format: cell-based
Method: Thus, to confirm CXCR4 functional activity, UCUF-728 was evaluated in a 96 w transwell migration assay in CEM human lymphoblast cells.
CEM-CCRF (ATCC CCL-119) were suspended in RPMI 1640 (Corning; 10-040-CV) at 5.0×10^5 cells/mL and allowed to incubate in cell culture incubator at 37° C. with 5% CO2 for one hour. […] Plates were reassembled and placed in a cell culture incubator at 37° C. with 5% CO2 for three hours. After incubation, Multi-Screen plate was disassembled and 100 μl of solution was collected from compound receiver tray and transferred to 96 well luminescent plate (Thermo Scientific; 265302) and an equal volume of ATPLite Istep luminescence reagent (Perkin Elmer, Waltham, MA; 6016731) was added to each well. Luminescence was measured using the CLARIOstar Plus (BMG LABTECH Inc., Cary, NC).

CXCR4 [3] = molecular target: T1, CXCR4; assay: cAMP signaling assay, oxazole scaffold (forskolin-induced adenylate cyclase, CHO-K1 CXCR4 cells); format: cell-based; set-up: host or cells: CHO-K1
Method: The CXCR4 receptor is a G-protein coupled receptor (GPCR) coupled to the Gi class, whose primary role is inhibition of adenylate cyclase. The ability of UCUF-728 to induce Gi-mediated cAMP-inhibitory cellular response was tested.
Forskolin at final concentration of […] was added to all wells using the TECAN dispenser. […] PathHunter CHO-K1 CXCR4 cells (DiscoverX, Fremont, CA) were added to compounds at 3,000 cells/well, centrifuged at 1000 rpm for 30 sec and incubated for 30 min at room temperature. DMSO (Sigma Aldrich, St. Louis, MO) was normalization to 0.5%. 5 μL of 4× Eu-cAMP tracer working solution was added to all wells followed by addition of 5 μL of 4× Ulight-anti-cAMP working solution to all wells. Plates were centrifuged at 1000 rpm for 1 min and incubated for 1 hr at room temperature then read using CLARIOstar Plus (BMG LABTECH Inc., Cary, NC) Lance CAMP protocol.

CXCR4 [4] = molecular target: T1, CXCR4; assay: Tag-Lite CXCR4 binding assay (displacement of fluorescent SDF-1α)
Method: Binding activity was measured using the Cisbio Tag-Lite Chemokine CXCR4 system (CisBio, Bedford, MA). […] Following three-hour incubation, HTRF measurements were taken using the BMG LABTECH CLARIOstar Plus (BMG LABTECH Inc., Cary, NC) with emission signals set to the Cisbio Tag-Lite Binding Assay supplier guidelines. HTRF ratio calculations completed according to supplier guidelines.

CXCR4 [5] = molecular target: T1, CXCR4; assay: β-arrestin recruitment, 384-well, Tango CXCR4-bla U2OS cells, normalized to SDF-1α; format: cell-based; set-up: host or cells: U2OS; conditions: normalized to SDF-1α; read-out: ß-arrestin recruitment EC50
Method: Tango™ CXCR4-bla U2OS Cells (Invitrogen; K1779) were used for (β-arrestin recruitment assays and maintained as a monolayer culture in McCoy's 5a (Corning; 10-050-CV) supplemented with 10% dialyzed Fetal Bovine Serum (Gibco; 26400-044), 0.1 mM MEM Non-essential amino acids solution, 25 mM HEPES solution (Corning; 25-060-CI), 1 mM Sodium Pyruvate (Gibco; 11360-070), 200 μg/mL Zeocin selection reagent (Gibco; R25001), 50 μg/mL Hygromycin B (Gibco, 10687010), and 100 μg/mL Geneticin (G418 Sulfate) (Gibco, 10131035). U2OS cells were subcultured twice weekly by 0.05% Trypsin-EDTA treatment (Corning; 25-051-CI) and passaged to continue exponential growth phase for cell signaling assays. All cell cultures were maintained in cell culture incubators at 37° C. with 5% CO2. CHO-K1 CXCR4 cells (DiscoverX, Fremont, CA, USA) were used for cAMP inhibition assays and maintained as a monolayer culture in DMEM/F12 (Corning; 10-091-CV) supplemented with 10% Fetal Bovine Serum (Corning; 35-011-CV) and 100IU penicillin, […] streptomycin sulfate (Corning; 30-002-CI) and […] G418 (Gibco; 101310350. Cells were subculture 2 times weekly by o.o5% Trypsin-EDTA treatment (Corning; 25-051-CI) and passaged to continue exponential growth phase for cell signaling assays. All cell cultures were maintained in cell culture incubators at 37° C. with 5% CO2.CEM-CCRF cells (ATCC CCL-119) were used in both the migration and calcium flux assays and were cultured in growth media consisting of RPMI 1640 (Corning; 10-040-CV) supplemented with 10% Fetal Bovine Serum (Corning; 35-011-CV), and 100 IU penicillin, […] streptomycin sulfate (Corning; 30-002-CI). Cells were maintained in suspension and sub-cultured twice weekly to maintain cell densities between 0.8×10^6 cells/mL and 2.5×10^6 cells/mL to maintain exponential growth phase. Cells were harvested for use in migration and calcium flux assays at 2.0×10^6 cells/mL to 2.5×10^6 cells/mL and resuspended in assay media to desired density for respective experiments.
Tango™ CXCR4-bla U2OS Cells were resuspended in assay media consisting of DMEM (Corning; Corning, NY) supplemented with 1% dialyzed Fetal bovine serum, 0.1 mM MEM Non-essential amino acids solution, 25 mM HEPES solution (Corning; Corning, NY), 1 mM Sodium Pyruvate and 100 IU penicillin, […] streptomycin sulfate (Corning; Corning, NY) at a density of 3.0×10^5 cells/ml. Assay media FreeStyle 293 expression Medium (Gibco; 12338018) was used for testing the thiadiazine scaffold CXCR4 agonists. Cells suspension was dispensed at 30 μl per well into assay plate and incubated overnight in a cell culture incubator at 37° C. with 5% CO2. […] Following overnight incubation, LiveBlazer FRET B/G Loading Kit (Invitrogen; K1095) working reagent was prepared according to supplier guidelines and 6 μl of solution was dispensed into each well; 8 μL of solution for testing the thiadiazine scaffold CXCR4 agonists. Assay plate was covered and incubated in a dark place for two hours and Fluorescence Intensity was measured using the BMG LABTECH CLARIOstar Plus (BMG LABTECH Inc., Cary, NC) according to the LiveBlazer FRET B/G Loading Kit excitation and emission measurement guidelines.
Results are expressed as mean±SD for 3 to 5 independent experiments. Statistically significant differences in gene expression between two groups were assessed by Student's T-test, ANOVA with an appropriate post hoc test was be used for multiple comparisons. P<0.05 was considered to be statistically significant. All concentration response curves were analyzed to determine EC50 and Emax using the following equation:
where Y is the normalized response (0-100%), X is the log of concentration of compound tested, and the Hill slope is equal to 1.0% and 100% activity are specific to each assay. […]

Compound: c1cc(CN2CCCNCCNCCCNCC2)ccc1CN1CCCNCCNCCCNCC1 [AMD3100, reference compound]
cAMP inhibition activity (CXCR4 [1]): reduces the activity of SDF-1α to inhibit cAMP | Emax (CXCR4 [1]; read-out: SDF-1α Emax reduced to, in the presence of 1 μM AMD3100): 40% | migration activity (words) [2]: blocked; also recorded: completely blocks SDF-1α induced migration; also recorded: unable to inhibit UCUF-965-induced migration; also recorded: does not inhibit the migratory response of CEM-CCRF cells induced by UCUF-965 | IC50 ([2]; Homo sapiens, read-out: logIC50, inhibition of migration (converted)): 31.6 nM | migration activity (words) ([2]; listed as AMD 3100): able to inhibit the migration response induced by SDF-1α | cAMP signaling / forskolin-induced adenylate cyclase (CXCR4 [3]): dose-dependently blocked; also recorded: dose-dependent inhibition of 40 nM SDF-1α | displacement of SDF-1α binding (CXCR4 [4]): dose-dependently displaced SDF-1α; also recorded: dose-dependently displaced SDF-1a saturation binding; also recorded: dose-dependently inhibited SDF-1α saturation binding

Compound: CCOc1ccccc1-c1nnc2n1N=C(c1ccc(N3CCCC3)cc1)CS2 [Entry 23]
EC50 (CXCR4 [1]; inhibition of forskolin-stimulated cAMP): 50 nM | EC50 (CXCR4 [5]): 20 nM

cAMP inhibition activity (CXCR4 [1]): partial agonist activity
Compound: CCOc1ccccc1-c1nnc2n1N=C(c1ccc(N3CCCC3=O)cc1)CS2 [compound 63]
migration activity (words) [2]: partial agonist activity

IC50 (CXCR4 [1]; CXCR4 overexpressing CHO cells, read-out: IC50, inhibition of forskolin-stimulated cAMP production): 1.5 nM | log IC50, inhibition of forskolin-stimulated cAMP production (CXCR4 [1]; log value): −8.9±0.1 M
Compound: SDF-1α
cAMP signaling / forskolin-induced adenylate cyclase (CXCR4 [3]): inhibited forskolin-induced adenylate cyclase
